Legend:
Assay in all cases: Cell viability (MTS) assay, targeted toxin mediated cell killing
Assay type in all cases: cell-based, human
Conditions in all cases: read-out: IC50, 1500 nM SO1861, toxin or toxin conjugate titrated + 1500 nM unconjugated SO1861
CaSki cells = test system: CaSki cells
Method: (§1) Cells were seeded in a 96 well plate at 5.000-10.000 c/w in 100 μL/well and incubated overnight at 37° C. […] The media was removed from the cell culture plate and replaced by 180 μL culture media, followed by the addition of 20 μL treatment-mix/well. […] In the case that endosomal acidification inhibitors (chloroquine (Sigma Aldrich) or bafilomycin A1 (Enzo Life Sciences)) were used, the cell culture media in step 1 of treatment was replaced by 180 μL media containing 1 pM chloroquine or 0.2 pM bafilomycin A1. The plate was incubated for 1 hour at 37° C., before the 10× treatment-mix samples were added.
(§2) After treatment the cells were incubated for 72 hr at 37° C. before the cell viability was determined by a MTS-assay, performed according to the manufacturer's instruction (CellTiter 96® AQueous One Solution Cell Proliferation Assay, Promega). Briefly, the MTS solution was diluted 20× in DMEM without phenol red (PAN-Biotech GmbH) supplemented with 10% FBS (PAN-Biotech GmbH). […] Subsequently, the optical density at 492 nm was measured on a Thermo Scientific Multiskan FC plate reader (Thermo Scientific). For quantification the background signal of ‘medium only’ wells was subtracted from all other wells, before the ratio of untreated/treated cells was calculated, by dividing the background corrected signal of untreated wells over the background corrected signal of the treated wells.

JIMT-1 cells = test system: JIMT-1 cells
Method: as §1, §2

HeLa cells = test system: HeLa cells
Method: as §1, §2

## Saporin
CaSki cells
  IC50: 0.015 nM
JIMT-1 cells
  IC50: 0.03 nM
HeLa cells
  IC50: 0.03 nM

— patent US20230256111A1, “C[…] ADC OR AN AOC COMPRISING A VHH, AND A SAPONIN OR A LIGAND-SAPONIN CONJUGATE” (SAPREME TECHNOLOGIES B.V., priority 2020, published 2023)
